Assay results as given in patent EP0726951B1, “MANUFACTURE AND USE OF POLYPEPTIDES TAGGED USING BINDING MOLECULES” (MEDICAL RESEARCH COUNCIL, priority 1993, dated 1995).

Experiments:
calmodulin [1] = biological target: T1, calmodulin (Homo sapiens, UniProt P0DP23); settings: published value; cited from earlier work
calmodulin [2] = biological target: T1, calmodulin; assay: native gel autoradiography of calmodulin with radiolabelled melatonin; assay type: binding; settings: 15% polyacrylamide gel, 0.5mM CaCl2, no SDS
Method: In order to assess this, 1µl calmodulin (lmg/ml) was incubated with 1µCi 2-[^125I]-melatonin in 9µl TBSC and run on a 15% polyacrylamide gel. The gel was as the running gel of Laemmli (Nature 1970 220 680-685), but with 0.5mM CaCl2 and no SDS in both gel and buffer.

calmodulin [3] = biological target: T1, calmodulin; settings: cited from earlier work

| Compound | half-life of the calmodulin-melatonin complex (calmodulin [1]) | radioactive band of complex with calmodulin (calmodulin [2]) | Ka (calmodulin [3]; affinity for calmodulin) | Kd (calmodulin [3]; binds calmodulin) |
| --- | --- | --- | --- | --- |
| COc1ccc2[nH]cc(CCNC(C)=O)c2c1 [melatonin] | 2 min | no complex is detected |  |  |
| COc1ccc2[nH]c([125I])c(CCNC(C)=O)c2c1 [2-[^125I]-melatonin] |  | no radioactive band was detected |  |  |
| mastoparan |  |  | 3.3e+09 M⁻¹ | 0.3 nM |
